According to patent US6841519B1, “Isoxazoline derivatives and herbicides containing the same as the active ingredient” (Kumiai Chemical Industry Co., Ltd., priority 1999, dated 2005):

What was measured:
Type in all cases: in vivo
[1] = test system: Echinochloa crus-galli (L.) Beauv. var. crusgall (Ec); experiment: Test for herbicidal effect by upland field soil treatment (Test Example 2), Ec
Outline: (§1)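 Pre-emergence soil treatment: wettable powder diluted in water and sprayed on soil just sown with Ec and Se seeds, delivering 100 g active ingredient per 10 ares in 100 liters per 10 ares. Herbicidal effect was rated against a fixed scale 21 days later, after greenhouse growth.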

[2] = test system: Echinochloa oryzicola Vasing. (Eo); experiment: Test for herbicidal effect by paddy field soil treatment (Test Example 1); conditions: application amount (active ingredient) 100 g/10 a, examined at the 21st day from the treatment, index per Table 40
Outline: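 Scored on a standard scale at day 21 in the greenhouse: herbicidal effect of wettable powder applied to flooded water (3 cm depth) at 100 g a.i./10 ares, one day after sowing Eo into puddled paddy soil.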

[3] = test system: Echinochloa oryzicola Vasing. (Eo); experiment: Test for crop selectivity by paddy field soil treatment (Test Example 4), herbicidal effect on Eo; conditions: 100 g/10 a active ingredient, 21st day
Protocol: (§2) [table] <Test Example 4> Test For Crop Selectivity By Paddy Field Soil Treatment A paddy field soil was filled in a plastic pot of 100 cm^2 and subjected to puddling. Seeds of Echinochloa oryzicola Vasing. (Eo) were sowed; two-leaf stage seedlings of rice (Or) were transplanted in a depth of 2 cm; and water was filled in a depth of 3 cm. Next day, wettable powders produced in accordance with the Formulation 1 were diluted with water and dropped on the water surface. The application amount of each wettable powder was 100 g per 10 ares in terms of the active ingredient. Then, breeding was made in a greenhouse. At the 21st day from the treatment, the phytotoxicity and herbicidal effect of each wettable powder were examined in accordance with the standard shown in Table 40.

rice (Or) = experiment: Test for crop selectivity by paddy field soil treatment (Test Example 4), phytotoxicity to rice; conditions: transplanted two-leaf stage rice, 100 g/10 a active ingredient, 21st day
Protocol: as §2

[4] = test system: Setaria viridis (L.) Beauv. (Se); experiment: Test for herbicidal effect by upland field soil treatment (Test Example 2), Se; conditions: 100 g/10 a active ingredient, examined at 21st day
Outline: as §1

[5] = 100 g/10 a active ingredient, examined at 21st day

Structure (SMILES)	Herbicidal effect to Ec ([1]; application amount (active ingredient) 100 g/10 a, examined at the 21st day from the treatment, index per Table 40)	Herbicidal effect to Eo [2]	Herbicidal effect to Eo [3]	Phytotoxicity to Or (rice (Or))	Herbicidal effect to Se [4]	Herbicidal effect to Ec [1, 5]
CC1(CO)CC(S(=O)(=O)Cc2c(F)cccc2F)=NO1 (centres unmarked) [Compound 1-394]	4 (A herbicidal effect or phytotoxicity of 70% to less than 90%)	5 (A herbicidal effect or phytotoxicity of 90% or more)	5 (A herbicidal effect or phytotoxicity of 90% or more)	1 (A herbicidal effect or phytotoxicity of 10% to less than 30%)		
CC1(C(=O)O)CC(SCc2c(F)cccc2F)=NO1 (centres unmarked) [Compound 1-419]		5 (A herbicidal effect or phytotoxicity of 90% or more)	5 (A herbicidal effect or phytotoxicity of 90% or more)	1 (A herbicidal effect or phytotoxicity of 10% to less than 30%)		
CCC1(C)CC(S(=O)(=O)CCc2ccccc2)=NO1 (centres unmarked) [Compound 1-456]		5 (A herbicidal effect or phytotoxicity of 90% or more)	5 (A herbicidal effect or phytotoxicity of 90% or more)	0 (A herbicidal effect or phytotoxicity of 0% to less than 10%)		
CCC1(C)CC(S(=O)(=O)CCCc2ccccc2)=NO1 (centres unmarked) [Compound 1-457]		5 (A herbicidal effect or phytotoxicity of 90% or more)	5 (A herbicidal effect or phytotoxicity of 90% or more)	1 (A herbicidal effect or phytotoxicity of 10% to less than 30%)		
O=S(=O)(Cc1c(F)cccc1F)C1=NOC2CCCCCC12 (centres unmarked) [Compound 1-518]			5 (A herbicidal effect or phytotoxicity of 90% or more)	1 (A herbicidal effect or phytotoxicity of 10% to less than 30%)	4 (A herbicidal effect or phytotoxicity of 70% to less than 90%)	5 (A herbicidal effect or phytotoxicity of 90% or more)
O=S(=O)(Cc1c(F)cccc1F)C1=NOC2CCCCCCC12 (centres unmarked) [Compound 1-519]		5 (A herbicidal effect or phytotoxicity of 90% or more)	5 (A herbicidal effect or phytotoxicity of 90% or more)	0 (A herbicidal effect or phytotoxicity of 0% to less than 10%)		
CC1(C)CC(S(=O)(=O)Cc2ccccc2N)=NO1 [Compound 1-552]		4 (A herbicidal effect or phytotoxicity of 70% to less than 90%)	4 (A herbicidal effect or phytotoxicity of 70% to less than 90%)	1 (A herbicidal effect or phytotoxicity of 10% to less than 30%)		
COCCOc1ccccc1CS(=O)(=O)C1=NOC(C)(C)C1 [Compound 1-579]		5 (A herbicidal effect or phytotoxicity of 90% or more)	5 (A herbicidal effect or phytotoxicity of 90% or more)	1 (A herbicidal effect or phytotoxicity of 10% to less than 30%)		
CCOCCOc1ccccc1CS(=O)(=O)C1=NOC(C)(C)C1 [Compound 1-580]		5 (A herbicidal effect or phytotoxicity of 90% or more)	5 (A herbicidal effect or phytotoxicity of 90% or more)	1 (A herbicidal effect or phytotoxicity of 10% to less than 30%)		5 (A herbicidal effect or phytotoxicity of 90% or more)
CC1(C)CC(S(=O)(=O)Cc2ccccc2OCc2ccccc2)=NO1 [Compound 1-588]		5 (A herbicidal effect or phytotoxicity of 90% or more)	5 (A herbicidal effect or phytotoxicity of 90% or more)	1 (A herbicidal effect or phytotoxicity of 10% to less than 30%)		
CC(C)COC(=O)c1ccccc1CS(=O)(=O)C1=NOC(C)(C)C1 [Compound 1-598]		5 (A herbicidal effect or phytotoxicity of 90% or more)	5 (A herbicidal effect or phytotoxicity of 90% or more)	1 (A herbicidal effect or phytotoxicity of 10% to less than 30%)		
CC1(C)CC(S(=O)(=O)Cc2ccccc2C(=O)OC2CCCC2)=NO1 [Compound 1-601]		5 (A herbicidal effect or phytotoxicity of 90% or more)	5 (A herbicidal effect or phytotoxicity of 90% or more)	1 (A herbicidal effect or phytotoxicity of 10% to less than 30%)		5 (A herbicidal effect or phytotoxicity of 90% or more)
CC1(C)CC(S(=O)(=O)Cc2ccccc2C(=O)OCc2ccccc2Cl)=NO1 [Compound 1-612]		5 (A herbicidal effect or phytotoxicity of 90% or more)	5 (A herbicidal effect or phytotoxicity of 90% or more)	0 (A herbicidal effect or phytotoxicity of 0% to less than 10%)		
CC1(C)CC(S(=O)(=O)Cc2ccccc2C(=O)OCc2cccc(Cl)c2)=NO1 [Compound 1-613]		5 (A herbicidal effect or phytotoxicity of 90% or more)	5 (A herbicidal effect or phytotoxicity of 90% or more)	0 (A herbicidal effect or phytotoxicity of 0% to less than 10%)		
CC1(C)CC(S(=O)(=O)Cc2ccccc2C(=O)OCc2ccc(Cl)cc2)=NO1 [Compound 1-614]		5 (A herbicidal effect or phytotoxicity of 90% or more)	5 (A herbicidal effect or phytotoxicity of 90% or more)	0 (A herbicidal effect or phytotoxicity of 0% to less than 10%)		
CCCCOC(=O)c1cccc(Cl)c1CS(=O)(=O)C1=NOC(C)(C)C1 [Compound 1-622]		5 (A herbicidal effect or phytotoxicity of 90% or more)	5 (A herbicidal effect or phytotoxicity of 90% or more)	1 (A herbicidal effect or phytotoxicity of 10% to less than 30%)		5 (A herbicidal effect or phytotoxicity of 90% or more)
CCC(C)OC(=O)c1cccc(Cl)c1CS(=O)(=O)C1=NOC(C)(C)C1 (centres unmarked) [Compound 1-623]		5 (A herbicidal effect or phytotoxicity of 90% or more)	5 (A herbicidal effect or phytotoxicity of 90% or more)	1 (A herbicidal effect or phytotoxicity of 10% to less than 30%)		
CC(C)COC(=O)c1cccc(Cl)c1CS(=O)(=O)C1=NOC(C)(C)C1 [Compound 1-624]		5 (A herbicidal effect or phytotoxicity of 90% or more)	5 (A herbicidal effect or phytotoxicity of 90% or more)	1 (A herbicidal effect or phytotoxicity of 10% to less than 30%)		
CC1(C)CC(S(=O)(=O)Cc2c(Cl)cccc2C(=O)OCc2ccccc2)=NO1 [Compound 1-625]		5 (A herbicidal effect or phytotoxicity of 90% or more)	5 (A herbicidal effect or phytotoxicity of 90% or more)	1 (A herbicidal effect or phytotoxicity of 10% to less than 30%)		
CC1(C)CC(S(=O)(=O)Cc2c(Cl)cccc2C(=O)OCc2ccccc2Cl)=NO1 [Compound 1-626]		5 (A herbicidal effect or phytotoxicity of 90% or more)	5 (A herbicidal effect or phytotoxicity of 90% or more)	0 (A herbicidal effect or phytotoxicity of 0% to less than 10%)		
CC1(C)CC(S(=O)(=O)Cc2c(Cl)cccc2C(=O)OCc2cccc(Cl)c2)=NO1 [Compound 1-627]		5 (A herbicidal effect or phytotoxicity of 90% or more)	5 (A herbicidal effect or phytotoxicity of 90% or more)	1 (A herbicidal effect or phytotoxicity of 10% to less than 30%)		
CC1(C)CC(S(=O)(=O)Cc2c(Cl)cccc2C(=O)OCc2ccc(Cl)cc2)=NO1 [Compound 1-628]		5 (A herbicidal effect or phytotoxicity of 90% or more)	5 (A herbicidal effect or phytotoxicity of 90% or more)	0 (A herbicidal effect or phytotoxicity of 0% to less than 10%)		
CCS(=O)(=O)C1=NOC(C)(C)C1 [Compound 2-2]		5 (A herbicidal effect or phytotoxicity of 90% or more)	5 (A herbicidal effect or phytotoxicity of 90% or more)	0 (A herbicidal effect or phytotoxicity of 0% to less than 10%)		
